# Measurements: paper PMC6273978, “Synthesis and Pharmacological Evaluation of Novel Pleuromutilin Derivatives with Substituted Benzimidazole Moieties” (Molecules, 2016)
# What was measured:
# E. coli = assay: Oxford cup assay, zone of inhibition; assay type: cell-based; conditions: Escherichia coli
# Description: (§1) The Oxford cup assays were carried out to evaluate the antibacterial activities against the above-mentioned six bacterial strains. The zones of inhibition for two concentrations (320 and 160 μg/mL) of the synthetic compounds and tiamulin fumarate were measured. The results of Oxford cup assay correspond with that obtained by agar dilution method (MICs) as a whole.
# (§2) The procedure for Oxford cup assays was the same as that previously reported. Briefly, inoculums were prepared in 0.9% saline using McFarland standard and spread uniformly on nutrient agar plates. The 320 and 160 µg/mL of all the tested compounds were added individually into the Oxford cups that were placed at equal distances above the agar surfaces. The zone of inhibition for each concentration was measured after a 24–36 h incubation at 37 °C. The same procedure was repeated in triplicate.
# S. warneri = assay: Oxford cup assay, zone of inhibition; assay type: cell-based; conditions: Staphylococcus warneri
# Description: as §1, §2
# S. haemolyticus = assay: Oxford cup assay, zone of inhibition; assay type: cell-based; conditions: Staphylococcus haemolyticus
# Description: as §1, §2
# MRSA [1] = assay: Oxford cup assay, zone of inhibition; assay type: cell-based; conditions: Staphylococcus aureus
# Description: as §1, §2
# S. aureus [2] = assay: Oxford cup assay, zone of inhibition; assay type: cell-based; conditions: Staphylococcus aureus
# Description: as §1, §2
# S. vitulinus = assay: Oxford cup assay, zone of inhibition; assay type: cell-based, Staphylococcus vitulinus; conditions: Mammaliicoccus vitulinus
# Description: as §1, §2
# MRSA [3] = assay: Inhibition of short-term bacterial growth (absorbance at 450 nm); assay type: cell-based; conditions: Staphylococcus aureus, 3.5 h incubation, Mueller-Hinton broth
# Description: (§3) Compound 3, being the best antibacterial derivative, was chosen for further evaluation on its antibacterial effect to inhibit short-term S. aureus and MRSA growth (Figure 2). This includes the GI50 of tiamulin fumarate for S. aureus and MRSA.
# (§4) The inhibition activities of test compounds were evaluated by measuring the absorbance of the bacterial suspension. In brief, inoculums were prepared from blood slants and adjusted to approximately 10^6 CFU/mL in Muellere-Hinton broth. The 0.0625, 0.125, 0.25, 0.5, 1, and 2 µM of tested compounds were prepared and added to the prepared inoculums. A sample of inoculum with no compound was used as control. The absorbance of bacterial suspension at 450 nm was measured using an UV spectrophotometer after 3.5 h of incubation, and the inhibition was calculated as 1 − (A^P/A^0), where A^p and A^0 are the absorbance of bacterial suspension in the presence and absence of compounds, respectively. The same procedure was independently repeated in triplicate.
# S. aureus [4] = assay: as above; assay type: cell-based; conditions: Staphylococcus aureus, 3.5 h, read-out: GI50 S. aureus growth
# Description: as §3, §4
# [5] = system: Escherichia coli (E. coli); assay: MIC testing, agar dilution method; assay type: cell-based; conditions: 36.5 °C, 24–48 h
# Excerpt: (§5) The synthesized pleuromutilin derivatives 3 and 4a–l, with tiamulin fumarate used a as reference drug, were screened for their in vitro antibacterial activity against Escherichia coli (E. coli), Staphylococcus aureus (S. aureus), Methicillin-resistant Staphylococcus aureus (MRSA), Staphylococcus vitulinus (S. vitulinus), Staphylococcus warneri (S. warneri), and Staphylococcus haemolyticus (S. haemolyticus). The antibacterial activities are reported in Table 1 as the minimum inhibitory concentration (MIC) using the agar dilution method. The MICs of the 13 new pleuromutilin derivatives in vitro against E. coli ranged from 10 to 80 μg/mL; against S. aureus, MRSA, S. vitulinus, S. warneri, and S. haemolyticus ranged from 0.156 to 40 μg/mL, respectively.
# (§6) The MIC for the synthesized compounds (3 and 4a–l) and tiamulin fumarate used as a reference drug were determined using the agar dilution method according to the National Committee for Clinical Laboratory Standards (NCCLS). Tested compounds were dissolved in 25%–40% DMSO to a solution with a concentration of 1280 µg/mL, whereas tiamulin fumarate was directly dissolved in 10 mL of distilled water at the same concentration as the tested compounds. All the solutions were then diluted twofold with sterile water to provide 11 dilutions (final concentration is 0.625 µg/mL). A 2 mL volume of the 2-fold serial dilution of each test compound/drug was incorporated into 18 mL of hot Muellere-Hinton agar medium. Inoculums, including five Gram (+), S. aureus, MRSA, S. vitulinus, S. warneri, S. haemolyticus, and one Gram (−), E. coli were prepared from blood slants and adjusted to approximately 10^5–10^6 CFU/mL with sterile saline (0.90% NaCl). A 10 µL amount of bacterial suspension was spotted onto Muellere-Hinton agar plates containing serial dilutions of the compounds/drug. The plates were incubated at 36.5 °C for 24–48 h. The same procedure was repeated in triplicate.
# [6] = system: Methicillin-resistant Staphylococcus aureus (MRSA); assay: MIC testing, agar dilution method; assay type: cell-based; conditions: 36.5 °C, 24–48 h
# Excerpt: as §5, §6
# [7] = system: Staphylococcus aureus (S. aureus); assay: MIC testing, agar dilution method; assay type: cell-based; conditions: 36.5 °C, 24–48 h
# Excerpt: as §5, §6
# [8] = system: Staphylococcus warneri (S. warneri); assay: MIC testing, agar dilution method; assay type: cell-based; conditions: 36.5 °C, 24–48 h
# Excerpt: as §5, §6
# [9] = system: Staphylococcus vitulinus (S. vitulinus); assay: MIC testing, agar dilution method; assay type: cell-based; conditions: Mammaliicoccus vitulinus, 36.5 °C, 24–48 h
# Excerpt: as §5, §6
# [10] = system: Staphylococcus haemolyticus (S. haemolyticus); assay: MIC testing, agar dilution method; assay type: cell-based; conditions: 36.5 °C, 24–48 h
# Excerpt: as §5, §6
smiles,measurement,setting,value
"C=C[C@]1(C)C[C@@H](OC(=O)CSc2nc3ccc(N)cc3[nH]2)[C@]2(C)[C@H](C)CC[C@]3(CCC(=O)[C@H]32)[C@@H](C)[C@@H]1O [Compound 3, 14-O-((5-Amino-benzimidazole-2-yl)thioacetyl) Mutilin]",zone of inhibition at 160 µg/mL,E. coli; 160 µg/mL,21.4 mm
same,zone of inhibition at 320 µg/mL,E. coli; 320 µg/mL,25.5 mm
same,zone of inhibition at 160 µg/mL,S. warneri; 160 µg/mL,28 mm
same,zone of inhibition at 320 µg/mL,S. warneri; 320 µg/mL,32.3 mm
same,zone of inhibition at 160 µg/mL,S. haemolyticus; 160 µg/mL,30.3 mm
same,zone of inhibition at 320 µg/mL,S. haemolyticus; 320 µg/mL,33 mm
same,zone of inhibition at 160 µg/mL,MRSA [1]; 160 µg/mL,25.4 mm
same,zone of inhibition at 320 µg/mL,MRSA [1]; 320 µg/mL,30.6 mm
same,zone of inhibition at 160 µg/mL,S. aureus [2]; 160 µg/mL,27.3 mm
same,zone of inhibition at 320 µg/mL,S. aureus [2]; 320 µg/mL,29.6 mm
same,zone of inhibition at 160 µg/mL,S. vitulinus; 160 µg/mL,25.5 mm
same,zone of inhibition at 320 µg/mL,S. vitulinus; 320 µg/mL,29.6 mm
same,GI50,MRSA [3],175 nM
same,GI50,S. aureus [4],98.7 nM
same,MIC,[5],10 µg/mL
same,MIC,[6],0.156 µg/mL
same,MIC,[7],0.156 µg/mL
same,MIC,[8],0.156 µg/mL
same,MIC,[9],0.156 µg/mL
same,MIC,[10],0.156 µg/mL
